According to patent publication US11952346B2, “Modulators of mas-related G-protein receptor X2 and related products and methods” (Escient Pharmaceuticals, Inc., priority 2020, dated 2024):

Biological target: T1, human MRGPRX2 (Homo sapiens, UniProt Q96LB1)
T1 construct: expressed in transfected cells
T1 sequence (Q96LB1 1-330): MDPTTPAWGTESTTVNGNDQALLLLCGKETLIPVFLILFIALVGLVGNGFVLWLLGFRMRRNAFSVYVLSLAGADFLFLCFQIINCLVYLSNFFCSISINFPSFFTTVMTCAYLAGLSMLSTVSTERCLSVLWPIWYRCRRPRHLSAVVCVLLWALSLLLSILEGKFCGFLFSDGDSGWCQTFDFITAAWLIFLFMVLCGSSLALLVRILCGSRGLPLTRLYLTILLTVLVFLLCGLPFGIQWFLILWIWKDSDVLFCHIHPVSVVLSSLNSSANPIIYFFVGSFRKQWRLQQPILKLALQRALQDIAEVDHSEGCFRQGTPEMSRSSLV
Assay: MRGPRX2 antagonist activity, IP-One HTRF assay in CHO cells expressing human MRGPRX2 versus Cortistatin-14
Type: cell-based
Conditions: CHO cells stably expressing human MRGPRX2; versus 0.3 uM Cortistatin-14 agonist; IP-1 HTRF readout; read-out: MRGPR2 Antagonist Activity
Experimental: CHO cells stably transfected to express human MRGPRX2 were maintained in an incubator at 37° C. with 5% CO2 and grown in F12 (HAM) media with 10% fetal bovine serum (FBS), 1% Glutamax, 1% penicillin/streptomycin, 800 μg/mL Geneticin (G418), and 300 μg/mL Hygromycin B. Cells were plated in a 384-well assay plate at 20,000 cells per well in 12 μL of Opti-MEM and kept in an incubator overnight. On the day of the assay, compounds solubilized at 10 mM in DMSO were added as a 10-point curve (30 uM final top concentration with 1:3 serial dilutions) using a Tecan D300E digital dispenser. Agonists were diluted in assay buffer (final concentrations of 5.7 mM Tris-HCl, 43 mM NaCl, 50 mM LiCI, pH=8) and 2 μL of the agonist Cortistatin-14 (CPC Scientific, catalog CORT-002) are added to each well. Final concentrations of agonists were […] Cortistatin-14. Final concentrations of DMSO were kept consistent across the plate. Plates were incubated in the dark for 1 hr at 37° C. and then for 1 hr at room temperature. IP-1 standards and HTRF detection reagents were added according to the IP-One—Gq Kit purchased from Cisbio (part number 621PAPEJ) and incubated in the dark for 1 hr at room temperature. The plate was read on a Molecular Devices SpectraMax iD5 plate reader. The HTRF ratio was calculated from the raw data and graphed using GraphPad Prism to calculate an IC50 value for each compound.
The activity ranges are denoted as follows: “+++++” denotes antagonist activity <100 nM; “++++” denotes antagonist activity between 100 and 500 nM; “+++” denotes activity between 501 and 1000 nM; “++” denotes activity between 1001 and 2500 nM; and “+” denotes activity >2500 nM.

| Compound | IC50 [nM] |
| --- | --- |
| O=C(N[C@H]1CC[C@@H](Nc2cc(Cl)nc(C(F)(F)F)c2)CC1)c1ccc(F)cc1 [Example 7, N-(1S,4S)-[4-[[2-chloro-6-(trifluoromethyl)-4-pyridyl]amino]cyclohexyl]-4-fluoro-benzamide] | 501 to 1000 |
| Cc1cc2c(C(=O)N[C@H]3CC[C@@H](Nc4ccc(C#N)c(C(F)(F)F)c4)CC3)ccnc2[nH]1 [4-60] | < 100 |
| CCn1nccc1C(=O)N[C@H]1CC[C@@H](Nc2cc(C)c(C#N)c(C(F)(F)F)c2)CC1 [5-6] | < 100 |
| CN(C)c1nc(N[C@H]2CC[C@@H](NC(=O)c3ccccc3)CC2)cc(C(F)(F)F)n1 [1-10] | 501 to 1000 |
| COc1cc(N[C@H]2CC[C@@H](NC(=O)c3ccc(F)cc3)CC2)nc(C(F)(F)F)n1 [1-7] | 1000 to 2500 |
| CNC(=O)c1ccc(C(=O)N[C@H]2CC[C@@H](Nc3ccc(C#N)c(C(F)(F)F)c3)CC2)cc1 [4-65] | < 100 |
| Cc1cc(N[C@H]2CC[C@@H](NC(=O)c3ccc4cncn4c3)CC2)cc(C(F)(F)F)c1C#N [5-9] | < 100 |
| CN(CC(F)F)c1ccc(C(=O)N[C@H]2CC[C@@H](Nc3ccc(C#N)c(C(F)(F)F)c3)CC2)cc1 [4-54] | < 100 |
| Cn1ccc2c(C(=O)N[C@H]3CC[C@@H](Nc4ccc(C#N)c(C(F)(F)F)c4)CC3)ccnc21 [4-61] | < 100 |
| CCNc1nc(N[C@H]2CC[C@@H](NC(=O)c3ccc(OC)cc3)CC2)cc(C(F)(F)F)n1 [Example 12, N-(1S,4S)-[4-[[2-(ethylamino)-6-(trifluoromethyl)pyrimidin-4-yl]amino]cyclohexyl]-4-methoxy-benzamide] | > 2500 |

Continued, values first:

| IC50 [nM] | Compound |
| --- | --- |
| 100 to 500 | Cc1cc2[nH]cnc2cc1C(=O)N[C@H]1CC[C@@H](Nc2cc(C(F)(F)F)nc(C(F)(F)F)c2)CC1 [4-8] |
| 1000 to 2500 | CN1CCN(C(=O)N[C@H]2CC[C@@H](Nc3cc(C(F)(F)F)nc(C(F)(F)F)c3)CC2)CC1 [4-36] |
| 501 to 1000 | O=C(N[C@H]1CC[C@@H](Nc2cc(C(F)(F)F)nc(C(F)(F)F)c2)CC1)c1cc2c([nH]1)CCCC2 [4-37] |
